Assay results: patent publication US8088819B2, “Derivatives of substituted 3-phenyl-1-(phenylthienyl)propan-1-ones and of 3-phenyl-1-(phenylfuranyl) propan-1-ones, preparation and use” (priority 2006, dated 2012)

What was measured:
dyslipidemic E2/E2 mice = experiment: Plasma lipid assays and lipoprotein distribution in the E2/E2 mouse; format: in vivo
Procedure: The antilipemic and HDL-cholesterol synthesis stimulating properties of the compounds according to the invention were evaluated in vivo by assay of the plasma lipids, analysis of the distribution of cholesterol and of triglycerides in the various plasma lipoprotein fractions and measurement of the expression of the target genes of the PPARs in the liver and skeletal muscle after treatment of dyslipidemic E2/E2 mice with compound 2.
The murine model used is the ApoE2/E2 type mouse, a transgenic mouse for the E2 isoform of human apolipoprotein E (Sullivan P M et al., 1998). In humans, this apolipoprotein, a constituent of the low and very low density lipoproteins (LDL-VLDL), occurs in three isoforms E2, E3 and E4. The E2 form has a mutation on an amino acid in position 158, which greatly weakens the affinity of this protein for the LDL receptor. The clearance of the VLDLs is accordingly almost zero. There is then accumulation of low-density lipoproteins and mixed hyperlipidemia called type III (high cholesterol and triglycerides).
Apo E2/E2 transgenic mice were kept under a cycle of light and darkness of 12/12 hours at a constant temperature of 20±3° C. After acclimation for one week, the mice were weighed and put into groups of 6 animals selected so that the distribution of their body weights and of their plasma lipid levels determined for the first time before the experiment are uniform. The test compounds were suspended in carboxymethylcellulose (Sigma C4888) and administered by intragastric force feeding, at a rate of once per day for 13 days at the chosen dose. The animals had free access to water and to food (standard diet). At the end of the experiment, the animals were anesthetized after fasting for 4 hours, a blood sample was taken using anticoagulant (EDTA), then the mice were weighed and euthanased. The plasma was separated by centrifugation at 3000 rev/min for 20 minutes, and the samples were stored at +4° C.
The various lipid fractions (VLDL, LDL, HDL) of the plasma were separated by gel filtration chromatography. The concentrations of cholesterol and of triglycerides were then measured in each fraction by enzyme assays (bioMérieux-Lyon-France) following the supplier's recommendations.
The plasma concentrations of total cholesterol were measured by enzyme assays (bioMérieux-Lyon-France) following the supplier's recommendations.
The low-density lipoproteins (VLDL and LDL) were precipitated with phosphotungstate. The precipitate was removed by centrifugation. The HDL-cholesterol present in the supernatant was quantified by enzyme assays (bioMérieux-Lyon-France) following the supplier's recommendations.

hPPARdelta = target: T1, hPPARdelta (Homo sapiens, UniProt Q03181); experiment: PPAR activation: Gal4-hPPARδ chimera luciferase transactivation in COS-7 cells, Method 2; format: cell-based; conditions: COS-7, 24 h
T1 construct: expressed in transfected cells; host or cells: COS-7 (monkey kidney fibroblasts)
T1 sequence (Q03181 211-439 limits assumed): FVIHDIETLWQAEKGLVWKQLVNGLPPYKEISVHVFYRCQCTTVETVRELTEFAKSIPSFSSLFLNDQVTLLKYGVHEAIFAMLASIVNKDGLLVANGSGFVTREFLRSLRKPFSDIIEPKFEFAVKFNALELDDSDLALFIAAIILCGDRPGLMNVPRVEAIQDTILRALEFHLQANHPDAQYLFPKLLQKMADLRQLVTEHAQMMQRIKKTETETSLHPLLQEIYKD
Outline: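 COS-7 cells were transfected with Gal4-PPAR LBD chimera plus Gal4(RE)_TkpGL3 luciferase reporter (1/10) and seeded serum-free for 4 h. Compounds at 10^−5 to 100 μm were applied for 24 h at 37° C in 1% lipid-free synthetic serum. Luciferase was read after lysis, and EC50 derived.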

[1] = 50 mpk oral, 7 and 13 days, vs control animals

Row | EC50 (hPPARdelta; 1% Ultroser) [nM] | Emax (hPPARdelta; maximum percentage response relative to the reference GW501516, read-out: hPPARdelta % max) [%] | SMILES | plasma HDL-cholesterol level (dyslipidemic E2/E2 mice; [1]) | plasma total cholesterol level (dyslipidemic E2/E2 mice; [1]) | level of triglycerides present in the VLDL (dyslipidemic E2/E2 mice; 50 mpk, 13 days) | plasma HDL-cholesterol level (distribution of cholesterol in plasma lipoprotein fractions) (dyslipidemic E2/E2 mice; 50 mpk, 13 days) | plasma levels of LDL and VLDL (distribution of cholesterol in plasma lipoprotein fractions) (dyslipidemic E2/E2 mice; 50 mpk, 13 days)
1 | – | – | CC(C)(Oc1ccc(CCC(=O)c2ccc(-c3ccc(C(F)(F)F)cc3)s2)c(Cl)c1Cl)C(=O)O [Compound 2, 2-(2,3-dichloro-4-(3-oxo-3-(5-(4-(trifluoromethyl)phenyl)thien-2-yl)propyl)phenoxy)-2-methylpropanoic acid] | increased significantly | lowered significantly | lowered | increased | significant decrease
2 | 30 | 92 | CC(C)(Oc1ccc(CCC(OCc2ccccc2)c2ccc(-c3ccc(C(F)(F)F)cc3)s2)c(Cl)c1Cl)C(=O)O (stereo not shown) [Compound 7, 2-(4-(3-(benzyloxy)-3-(5-(4-(trifluoromethyl)phenyl)thien-2-yl)propyl)-2,3-dichlorophenoxy)-2-methylpropanoic acid] | – | – | – | – | –
